We go through two compounds from patent US20220117895A1, “PREPARING LIPOSOMES WITH HIGH DRUG LOADING CAPACITY AND THE USE THEREOF” (Purdue Research Foundation, priority 2019, published 2022).

The conditions of data set [1]: cited from earlier work.
Data set [2] deals with Huh7 cells. The experiment in a line: Cellular uptake of drug-loaded liposomes, quantitative analysis. The class given is cell-based, human. The note with it: Huh7, 50 μM Dox equivalent; evident at 3, 6 and 12 h. As for the experimental part:
Huh7 Cells were seeded in a 12 well plate at a density of 10^5 cells per well. After overnight incubation, the cells were treated with LRHG, LRSG, or free Gem at a concentration equivalent to 50 μM Gem, or with LRD or free Dox at a concentration equivalent to 50 μM Dox. At 3, 6, 12, and 24 h post-treatment, the cells were rinsed twice with cold PBS, trypsinized and collected by centrifugation at 233 rcf. The cell pellets were suspended in PBS and lysed by three cycles of freezing and thawing followed by probe sonication. The protein content in each cell lysate was measured by micro BCA assay. A hundred microliters of cell lysate was mixed with 200 μL of acetonitrile, bath sonicated for 1 h, and centrifuged at 16100 rcf for 30 min to separate a supernatant. The supernatant was evaporated under vacuum overnight and reconstituted in 100 μL of PBS. Dox was detected by the microplate reader at λEx/λEm of 488 nm/580 nm. dFdCTP was detected by HPLC using a 64:36 v/v mixture of two aqueous mobile phases: (i) KH2PO4 10 mM, tetra butyl ammonium bromide (TBABr) 10 mM, pH 7 and 0.25% methanol and (ii) KH2PO4 250 mM, TBABr 10 mM, pH 7 and 15% methanol, run at 1.2 mL/min, and a detection wavelength of 271 nm.

A short description of data set [3]: pKa and ionization of drug. The note with it: internal pH 3.6. The class given is physicochemical.
In data set [4] the test system is Huh7 cells. The experiment in a line: Confocal imaging of cellular uptake. The following applies: 10 min, 3 h, 10 h, with or without chloroquine. The class given is cell-based, human. On the procedure: Huh7 were seeded in a 35 mm glass-bottomed dish (Mat Tek Corp., Ashland, Mass.) at a density of 100,000 cells per dish. At 70% confluence, the cells were treated with free Dox for 10 min or fluorescently labeled liposomes (*LRD, labeled with 25-NBD cholesterol) for 10 min, 3 h or 10 h. At each time point, the cells were rinsed twice with PBS. After nuclei staining with Hoechst 33342 ([…]) for 10 min, the cells were rinsed again with PBS and imaged in medium by a Nikon-A1R confocal microscope (Nikon America Inc., Melville, N.Y.). For selected treatments, chloroquine was added 12 h prior to the treatment. The cells were rinsed with PBS and incubated with the labeled liposomes for confocal imaging.

The test system of data set [5] is Huh7 human hepatocellular carcinoma cells. In words: Cytotoxicity of drug-loaded liposomes (MTT). The class given is cell-based. As for the experimental part:
Huh7 human hepatocellular carcinoma cells (donation of Prof. Wanqing Liu) were cultured in RPMI-1640 medium complemented with 10% FBS, 100 U/mL penicillin, and […] streptomycin at 37° C. in a humidified 5% CO2 atmosphere. Huh7 cells were seeded in a 96 well plate at a density of 10,000 cells per well and grown to 70% confluence. Huh7 cells were exposed to free drug or liposomal preparations for 3 or 6 h. The cells were rinsed twice with fresh medium and kept in drug-free medium for 72 h. In another experiment, Huh7 cells were incubated with a free Gem, LRSG, LRHG, free Dox, LRD, blank liposomes, free drug mixture, or liposome mixture for 72 h. The medium was then removed, and 15 μL of 5 mg/mL MTT solution and 100 μL media were added to each well and incubated for 4 h at 37° C. Each well was then treated with 100 μL of stop/solubilization solution and agitated at 37° C. overnight. The absorbance of dissolved formazan was measured at 562 nm by a SpectraMax M3 microplate reader (Molecular Devices, Sunnyvale, Calif.).

For data set [6] the following is noted: upon systemic administration; cited from earlier work.
The conditions of data set [7]: literature (Bornmann et al.); cited from earlier work.

For the compound `COc1cccc2c1C(=O)c1c(O)c3c(c(O)c1C2=O)C[C@@](O)(C(=O)CO)C[C@@H]3O[C@H]1C[C@H](N)[C@H](O)[C@H](C)O1.Cl` [Dox, Doxorubicin HCl], the pKa in data set [1] is listed as 8.68. Moreover, in the data set on Huh7 cells [2], the “cellular uptake of Dox” value is “entering cells more efficiently than LRD”. The “ionized/unionized ratio in the interior of liposomes” value in data set [3] was 120,000. The “cellular uptake and localisation by confocal microscope imaging” value in the data set with Huh7 cells [4] is reported as “appearing in the nuclei as early as in 10 min”. Besides, in data set [5] (72 h incubation), it took 250 nM to reach half-maximal inhibition (IC50).
As to `Nc1ccn([C@@H]2O[C@H](CO)[C@@H](O)C2(F)F)c(=O)n1` [Gem, Gemcitabine], the pKa in data set [1] is 3.6. Also, in data set [6], the half-life is 8 to 17 min. For the same compound, in data set [7], the “reported maximum tolerated dose” value was 16 mg/kg. In data set [5] (Homo sapiens, Huh-7, 72 h incubation), this compound registered a half-inhibitory concentration (IC50) of 1600 nM.
